Laboratory results: patent US20230233531A1, “USE OF NON-STEROIDAL ANTI-INFLAMMATORY COMPOUNDS FOR TREATMENT OF INFLAMMATION” (University of Houston System, priority 2022, published 2023)
Entries after “also recorded” stand apart in the source; their conditions may differ.

Experiments:
[1] = tested on: carrageenan-induced paw inflammation; experiment: Carrageenan-induced paw inflammation/edema in CD-1 mice; format: in vivo; details: for dose-dependent anti-inflammatory activity, paw thickness: 10 mg/kg vs 50 mg/kg; for dose-dependent anti-inflammatory activity, paw edema volume: 10 mg/kg vs 50 mg/kg, 2, 4 and 6 h; for paw thickness increase / paw volume increase: 50 mg/kg intramuscular, vs control group; for paw volume increase: 50 mg/kg
Protocol: (§1) Animals. The adult CD-1 mice (18-20 g) and BABL-c (18-20 g) were purchase from Envigo Plus vendor (USA) and used in this study. The mice were hosted under standard condition (23±2° C.; 12 h/12 h light/dark cycle; 50% humidity). The protocol was approved by Institutional Animal Care and Use Committee (IACUC). And all procedures were conducted according to IACUC. After all the experiments, the animals were euthanized with CO2 under the procedure of IACUC. Injections of compounds. The synthesized compounds to be tested were injected 10 mins before carrageenan injection. All the compounds were freshly prepared. All the compounds were dissolved in PBS and totally dissolved after ultrasonic. The compounds were injected with 26-G sterile needle via intramuscular injection. After immobilizing the mice, the hind limb was immobilized with the little finger and the then, the injection site was disinfected with 70% alcohol, and the needle was inserted into the root of the hindlimb at an angle of 45 degrees. The needle plug was withdrawn to make sure there was no injection into the blood vessel. If there was no blood return, the compounds were injected slowly. The mice were place back to their cages for 10 mins before the next step. Procedures for establishing of paw inflammation. The procedure of establishing inflammation mice model and the procedure of measurement of paw edema were describe as follow: 1% lambda-carrageenan was freshly prepared before injection. Carrageenan powder was first dissolved in cold PBS and vortexed for 5 times. Then the mixture was placed in 50° C. water for 5 mins until all the milky white matrix dissolved completely. […]*3⁄8 (0.45 mm*10 mm) sterile needle was used for injection. Carrageenan was subcutaneous injected slowly into the middle of the mice left hind paw. The time of injection Carrageenan was count as the start time point (0 h) and the paw swelling size was recorded as paw thickness and paw edema volume. Establishing of Carrageenan-induced Inflammatory Paw Edema Mice Model. […] The carrageenan-induced paw edema inflammation is a well-defined model of acute inflammation. It is widely and commonly used for evaluating the effectiveness of inhibitors of prostaglandin synthesis. Carrageenan is a complex of polysaccharides that functions in stimulating the expressions of COX-2 and mPGES-1 to release the proinflammatory mediator, PGE2, and its downstream factors, such as bradykinin, histamine, tachykinins, reactive oxygen, and nitrogen species. In this study, to induce acute inflammation, a single dose of 25 μl of 1% solution of λ-carrageenan was injected subcutaneously into the pad area of the hairless skin on the underside of the left hind paw (FIG. 1A). The injection was performed using a 26-gauge needle targeting the center of the plantar region. The administration of leading compounds and the positive control group, Celebrex, and the negative control saline occurred 10 minutes prior to the λ-carrageenan […] injection. To obtain the anti-inflammatory data, the animal condition was monitored hourly and paw-edema volume and thickness were measured hourly from 0 h to 6 h and again at 24 h, the injection of λ-carrageenan was counted as 0 h (FIG. 1B). After 24 h, local blood was collected from the hind paw of the mice for the next step assay to determine the PGE2 and PGI2 levels. Tissue samples, including the stomach and kidney, were collected after euthanization. The BABL-c mice were arranged into three groups: A. Control (Ctl) group: 50 μl saline; B. 2Me group: 50 mg/kg, 50 ul; C. 3-F group: 50 mg/kg, 50 ul. the CD-1 mice were arranged into 6 groups: A. Control (Ctl) group: saline 50 ul; B. 2-Me group: 50 mg/kg, 50 ul; C. 3-F group: 50 mg/kg, 50 ul; D: 2-Me group: 10 mg/kg, 50 ul; E. 3-F group: 10 mg/kg, 50 ul; F. Celebrex group: 50 mg/kg, 50 ul. Establishing measurements of the carrageenan-induced acute inflammation/edema. […]

COX-2-10aa-mPGES-1 = molecular target: T1, COX-2-10aa-mPGES-1 (Homo sapiens, UniProt O14684+P35354); experiment: Enzymelink COX-2-10aa-mPGES-1 high through-put screening; format: biochemical; details: cross-filtered between mPGES-1, PGIS and COX-2 with AA as substrate
T1 construct: made in house
T1 sequence (P35354+O14684 with tags, fused parts or gaps): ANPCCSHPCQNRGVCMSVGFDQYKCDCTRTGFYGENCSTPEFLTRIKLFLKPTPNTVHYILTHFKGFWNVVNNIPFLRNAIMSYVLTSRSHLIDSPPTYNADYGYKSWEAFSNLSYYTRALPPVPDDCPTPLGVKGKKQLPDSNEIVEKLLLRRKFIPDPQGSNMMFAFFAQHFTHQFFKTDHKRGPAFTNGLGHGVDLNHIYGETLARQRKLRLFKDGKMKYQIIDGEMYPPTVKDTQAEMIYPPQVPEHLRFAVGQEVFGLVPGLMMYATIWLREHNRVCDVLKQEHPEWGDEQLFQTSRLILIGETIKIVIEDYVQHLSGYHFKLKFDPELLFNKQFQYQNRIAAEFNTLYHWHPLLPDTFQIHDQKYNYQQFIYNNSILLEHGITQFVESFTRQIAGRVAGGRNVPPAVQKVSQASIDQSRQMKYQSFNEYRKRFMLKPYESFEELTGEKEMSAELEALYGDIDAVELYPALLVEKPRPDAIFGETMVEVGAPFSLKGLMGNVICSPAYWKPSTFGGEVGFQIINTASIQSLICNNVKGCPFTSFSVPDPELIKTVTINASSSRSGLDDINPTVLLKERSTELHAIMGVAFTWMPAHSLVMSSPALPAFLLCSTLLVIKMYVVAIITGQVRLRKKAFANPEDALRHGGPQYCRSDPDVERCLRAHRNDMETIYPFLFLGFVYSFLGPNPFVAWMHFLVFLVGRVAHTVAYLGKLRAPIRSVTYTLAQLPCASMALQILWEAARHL
Excerpt: There is an urgent need for new anti-inflammatory drugs with less the adverse effects in clinical practice. Developing drugs which inhibit mPGES-1 without affecting other COX downstream synthases to only decrease PGE2 level at inflammation site is an ideal therapeutic strategy to treat inflammatory diseases. By successfully establishing a system of single-chain Enzymelinks of the upstream COX-2 and the downstream mPGES-1 thread by a 10 amino acid (AA) bio-linker (COX-2-10aa-mPGES-1 [9,11]), one can mimic endogenous inflammatory PGE2 biosynthesis without affecting COX-2 coupling to other enzyme synthases, for example, PGIS. This kind of Enzymelink has a kinetic advantage for converting the initial substrate, AA, to pro-inflammatory PGE2 via a triple catalytic reaction due to the shorter distance between the catalytic domain of the two enzymes within a single polypeptide chain. By this method, it was possible to reduce the interference with the mPGES-1 inhibitor screen, such as the nonspecific inhibition and cross-inhibition of PGIS, by avoiding the use of the unstable intermediate PGH2 as the initial substrate for PGE2 biosynthesis. At the same time, another Enzymelink, COX-2-10aa-PGIS was established in order to verify that the screen compound will not affect PGI2 synthesis. […]

[2] = tested on: carrageenan-induced paw inflammation; experiment: Carrageenan-induced paw inflammation/edema in BABL-c mice; format: in vivo; details: for inflammatory edema (paw volume quantitation): 50 mg/kg intramuscular 10 min before carrageenan, vs saline control; for inflammatory edema (paw volume quantitation) / time course of paw volume: 50 mg/kg; for paw thickness: 50 mg/kg intramuscular, vs control group; for time course of paw volume: 0-6 h after carrageenan
Protocol: as §1

SMILES | dose-dependent anti-inflammatory activity, paw thickness [1] | dose-dependent anti-inflammatory activity, paw edema volume [1] | paw thickness increase [1] | paw volume increase [1] | selectivity for mPGES-1 (COX-2-10aa-mPGES-1) | inflammatory edema (paw volume quantitation) [2] | paw thickness [2] | time course of paw volume [2]
Nc1ccc2oc(-c3ccc(C(F)(F)F)cc3)nc2c1 [3-F] | improve the anti-inflammatory effects | increasing potent anti-inflammatory effect corresponding with the dosage increase | significantly decrease | significantly decrease; also recorded: significant effects on reducing the paw edema | highly selective for mPGES-1 | significantly decreased the inflammatory edema; also recorded: significant effects on reducing the paw edema | significant anti-inflammatory potency | increased during the first 2 hours but decreased within the next 4 hours
CC(C)c1ccc(-c2nc3cc(N)ccc3o2)cc1 [2-Me] | improve the anti-inflammatory effects | improved its anti-inflammation activity | significantly decrease | significantly decrease; also recorded: significant effects on reducing the paw edema | highly selective for mPGES-1 | significantly decreased the inflammatory edema; also recorded: significant effects on reducing the paw edema | significant anti-inflammatory potency | increased slightly in the first 4 hours and decreases in the following 2 hours
